The experiment concerns the target T1, human α7 nAChR stably expressed in a HEK cell line (with human RIC-3) (Homo sapiens, UniProt P36544).
T1 construct: PrecisION hnAChR α7/RIC-3
Kind of experiment: Automated patch-clamp electrophysiology functional assay (Assay A), IonFlux HT, whole-cell population patch. In kind it is cell-based. An outline of the steps: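 Whole-cell population patch clamp (IonFlux HT) used HEK cells stably co-expressing human α7 and RIC-3, held at −60 mV at room temperature. Compounds were applied alone (agonism) or with 40 μM acetylcholine (potentiation), three ascending concentrations per recording. Currents were quantified relative to a 40 μM acetylcholine reference response, giving EC50.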

Where [1] appears, read: automated patch-clamp electrophysiology functional assay (Assay A), potency class by EC50, read-out: α7 nAChR Potency.
Setting [2] is: electrophysiology EC50, HEK cells expressing human α7/RIC-3, 40 μM acetylcholine, holding potential −60 mV, room temperature, read-out: α7 nAChR EC50.

Like-named read-outs stand apart in the source and are kept apart here.

T1 sequence (P36544 23-502): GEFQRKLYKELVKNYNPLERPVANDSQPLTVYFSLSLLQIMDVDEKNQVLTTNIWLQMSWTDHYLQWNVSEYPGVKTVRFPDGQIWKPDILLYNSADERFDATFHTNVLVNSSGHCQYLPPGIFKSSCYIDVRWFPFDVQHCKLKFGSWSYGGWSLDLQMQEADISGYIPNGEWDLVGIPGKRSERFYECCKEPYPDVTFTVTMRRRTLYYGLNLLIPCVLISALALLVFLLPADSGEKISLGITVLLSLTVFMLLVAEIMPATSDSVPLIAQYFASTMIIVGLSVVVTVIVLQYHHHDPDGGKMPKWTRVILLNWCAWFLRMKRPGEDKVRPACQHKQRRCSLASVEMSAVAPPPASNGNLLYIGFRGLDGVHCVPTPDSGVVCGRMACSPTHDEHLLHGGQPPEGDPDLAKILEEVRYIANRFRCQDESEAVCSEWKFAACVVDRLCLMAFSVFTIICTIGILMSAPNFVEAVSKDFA

With `CC1(C)[C@@H](c2ccc(S(N)(=O)=O)cc2)[C@@H]1c1noc(C2CCCCC23CC3)n1` (stereo partly shown) [Example I27], the EC50 under setting [1] was in the range of 100 to 500 nM.

As to `NS(=O)(=O)c1ccc([C@@H]2C[C@H]2c2ccn(Cc3cccc(F)c3)n2)cc1` [Example 23, 4-{(1R,2R)-2-[1-(3-Fluorobenzyl)-1H-pyrazol-3-yl]cyclopropyl}benzenesulfonamide], the EC50 under setting [1] is 100 to 500 nM and the EC50 under setting [2] came out at 460 nM.

For `CC(C)Oc1ccc(Cl)cc1-c1noc([C@H]2[C@H](c3ccc(S(N)(=O)=O)cc3)C2(C)C)n1` [Example C3], the EC50 runs as follows: under setting [1], 5000 to 50000 nM; under setting [2], 6100 nM.

For `Cc1ncccc1-c1noc([C@H]2C[C@@H]2c2ccc(S(N)(=O)=O)cc2)n1` [Example B6], the EC50 runs as follows: under setting [1], 5000 to 50000 nM; under setting [2], 7700 nM.

As for `CC1(C)[C@@H](c2ccc(S(N)(=O)=O)cc2)[C@@H]1c1nnc(-c2ccccc2)s1` [Example G7], the EC50 by setting is: under setting [1], 500 to 5000 nM; under setting [2], 1800 nM.

Take `CC1(C)[C@@H](c2ccc(S(N)(=O)=O)cc2)[C@@H]1c1cn(-c2ccccc2)nn1` [Example L7]: the EC50 under setting [1] lay in the range of 500 to 5000 nM.

Consider `COc1ccc(Cl)cc1-c1noc([C@@H]2[C@@H](c3ccc(S(N)(=O)=O)cc3)C2(C)C)n1` [Example A1], for which the EC50 is 500 to 5000 nM under setting [1] and 2900 nM under setting [2].

Turning to `CC1(C)[C@H](c2ccc(S(N)(=O)=O)cc2)[C@H]1c1noc(-c2ccccc2)n1` [Example L17], under setting [1], the EC50 was 100 to 500 nM.

Regarding `CC1(C)[C@@H](c2ccc(S(N)(=O)=O)cc2)[C@@H]1c1noc(-c2ccc(C#N)cc2)n1` [Example H12], the EC50 is 500 to 5000 nM under setting [1] and 1200 nM under setting [2].

With `CC1(C)C(c2ccc(S(N)(=O)=O)cc2)C1c1noc(C2CC3CN(C4CCCC4)C(=O)C3C2)n1` (stereo not shown) [Example I24], the EC50 is, setting by setting: under setting [1], 500 to 5000 nM; under setting [2], 4400 nM.

As to `NS(=O)(=O)c1ccc([C@@H]2C[C@H]2c2nnc(C3CCCC3)s2)cc1` [Example G16], the EC50 under setting [1] fell in the range of 500 to 5000 nM.

Turning to `NS(=O)(=O)c1ccc([C@@H]2C[C@H]2c2nc(-c3cc(F)ccc3C(F)(F)F)no2)cc1` [Example C8], the EC50 under setting [1] fell in the range of 100 to 500 nM and the EC50 under setting [2] is 500 nM.

Regarding `CC1(C)[C@@H](c2ccc(S(N)(=O)=O)cc2)[C@@H]1c1nnc(-c2ccccc2C(F)(F)F)o1` [Example G4], the EC50 under setting [1] was in the range of 500 to 5000 nM.

In the case of `NS(=O)(=O)c1ccc([C@@H]2C[C@H]2c2nsc(C3CCCCC3)n2)cc1` [Example L11], under setting [1], the EC50 was in the range of 100 to 500 nM.

Turning to `NS(=O)(=O)c1ccc([C@@H]2C[C@H]2c2nc(C3CCCCC3)no2)cc1` [Example D8], the EC50 under setting [1] lay in the range of 100 to 500 nM and the EC50 under setting [2] came to 190 nM.

In the case of `NS(=O)(=O)c1ccc([C@H]2C[C@@H]2c2nc(-c3cncc(F)c3)no2)cc1` [Example B5], the EC50 under setting [1] lay within 5000 to 50000 nM.

Regarding `CC1(C)[C@@H](c2ccc(S(N)(=O)=O)cc2)[C@@H]1c1noc(-c2ccc3nc(O)sc3c2)n1` [Example I32], the EC50 under setting [1] was 100 to 500 nM.

Take `CC1(C)[C@@H](c2ccc(S(N)(=O)=O)cc2)[C@@H]1c1noc(-c2cccc(F)c2)n1` [Example H5]: the EC50 under setting [1] was 500 to 5000 nM and the EC50 under setting [2] is 1500 nM.

Turning to `CC1(C)[C@H](c2ccc(S(N)(=O)=O)cc2)[C@H]1c1nc(C2CC2)c(C2CC2)o1` [Example 31, 4-[(1R,3R)-3-(4,5-Dicyclopropyl-1,3-oxazol-2-yl)-2,2-dimethylcyclopropyl]benzenesulfonamide], the EC50 reads like this: under setting [1], 500 to 5000 nM; under setting [2], 2400 nM.

Take `CC1(C)[C@@H](c2ccc(S(N)(=O)=O)cc2)[C@@H]1c1nnc(C2CC2)s1` [Example G15]: the EC50 under setting [1] was 500 to 5000 nM.

As for `CC1(C)[C@@H](c2ccc(S(N)(=O)=O)cc2)[C@@H]1c1noc(C(O)C(F)(F)F)n1` (stereo partly shown) [Example I28], the EC50 under setting [1] was 500 to 5000 nM.

Take `Cc1ccc(-c2noc([C@@H]3C[C@H]3c3ccc(S(N)(=O)=O)cc3)n2)cc1` [Example C19]: the EC50 is, setting by setting: under setting [1], 500 to 5000 nM; under setting [2], 510 nM.

As to `Cc1ccccc1-c1noc([C@@H]2C[C@H]2c2ccc(S(N)(=O)=O)cc2)n1` [Example C17], the EC50 under setting [1] is 100 to 500 nM.

As for `Cc1cccc(-c2noc([C@@H]3C[C@H]3c3ccc(S(N)(=O)=O)cc3)n2)c1` [Example C18], under setting [1], the EC50 is 100 to 500 nM.

Turning to `CC1(C)[C@@H](c2ccc(S(N)(=O)=O)cc2)[C@@H]1c1noc(-c2ccccc2)n1` [Example H1], the EC50 under setting [1] was 100 to 500 nM and the EC50 under setting [2] came to 260 nM.

As for `CC1(C)[C@H](c2ccc(S(N)(=O)=O)cc2)[C@H]1c1nnc(-c2cc(F)ccc2C(F)(F)F)o1` [Example F2], under setting [1], the EC50 lay in the range of 500 to 5000 nM.

Take `NS(=O)(=O)c1ccc(C2CC2c2nc(-c3cccc(F)c3)ns2)cc1` (single isomer, unassigned) [Example M4]: the EC50 was 100 to 500 nM under setting [1] and 210 nM under setting [2].

As for `CC1(C)[C@H](c2ccc(S(N)(=O)=O)cc2)[C@H]1c1cnc(-c2ccccc2)o1` [Example 10, 4-[(1R,3R)-2,2-Dimethyl-3-(2-phenyl-1,3-oxazol-5-yl)cyclopropyl]benzenesulfonamide], the EC50 reads like this: under setting [1], 500 to 5000 nM; under setting [2], 1200 nM.

With `CC1(C)[C@@H](c2ccc(S(N)(=O)=O)cc2)[C@@H]1c1cc(-c2ccccc2)no1` [Example L4], the EC50 is, setting by setting: under setting [1], 500 to 5000 nM; under setting [2], 640 nM.

For `CC1(C)[C@@H](c2ccc(S(N)(=O)=O)cc2)[C@@H]1c1nc(CC(F)(F)F)no1` [Example D14], under setting [1], the EC50 fell in the range of 500 to 5000 nM.

Turning to `NS(=O)(=O)c1ccc([C@@H]2C[C@H]2c2noc(-c3cccc(F)c3)n2)cc1` [Example H15], the EC50 is 100 to 500 nM under setting [1] and 190 nM under setting [2].

Regarding `CC1(C)[C@H](c2ccc(S(N)(=O)=O)cc2)[C@H]1c1nc(-c2ccccc2)no1` [Example A3], the EC50 under setting [1] fell in the range of 500 to 5000 nM.

`NS(=O)(=O)c1ccc([C@@H]2C[C@H]2c2ncc(C3CC3)o2)cc1` [Example K5]: the EC50 is 100 to 500 nM under setting [1] and 350 nM under setting [2].

Consider `Cc1ncoc1-c1noc([C@@H]2C[C@H]2c2ccc(S(N)(=O)=O)cc2)n1` [Example D31], for which the EC50 under setting [1] was 500 to 5000 nM.

Regarding `CC1(C)[C@H](c2ccc(S(N)(=O)=O)cc2)[C@H]1c1cc(-c2ccccc2)no1` [Example 11, 4-[(1R,3R)-2,2-Dimethyl-3-(3-phenylisoxazol-5-yl)cyclopropyl]benzenesulfonamide], the EC50 runs as follows: under setting [1], 100 to 500 nM; under setting [2], 460 nM.

On to `CC1(C)[C@@H](c2ccc(S(N)(=O)=O)cc2)[C@@H]1c1noc(-c2ccc(F)c(OC(F)(F)F)c2)n1` [Example H4], for which the EC50 under setting [1] lay in the range of 500 to 5000 nM.

`COc1ccc(Cl)cc1-c1noc([C@@H]2C[C@H]2c2ccc(S(N)(=O)=O)cc2)n1` [Example 19, 4-{(1R,2R)-2-[3-(5-Chloro-2-methoxyphenyl)-1,2,4-oxadiazol-5-yl]cyclopropyl}benzenesulfonamide]: the EC50 under setting [1] is 500 to 5000 nM and the EC50 under setting [2] worked out at 780 nM.

Consider `CC1(C)[C@@H](c2ccc(S(N)(=O)=O)cc2)[C@@H]1c1nc(-c2cncc(C(F)(F)F)c2)no1` [Example D17], for which the EC50 is 500 to 5000 nM under setting [1] and 2300 nM under setting [2].

With `CC(C)(F)c1noc([C@H]2[C@H](c3ccc(S(N)(=O)=O)cc3)C2(F)F)n1` [Example D35], the EC50 was 100 to 500 nM under setting [1] and 410 nM under setting [2].

Regarding `CC1(C)[C@@H](c2ccc(S(N)(=O)=O)cc2)[C@@H]1c1nc(C2CCCC2)co1` [Example K17], the EC50 under setting [1] lay within 100 to 500 nM and the EC50 under setting [2] is 130 nM.

On to `CC1(C)[C@@H](c2ccc(S(N)(=O)=O)cc2)[C@@H]1c1noc(-c2cccc(OC(F)(F)C(F)F)c2)n1` [Example H14], for which, under setting [1], the EC50 lay within 100 to 500 nM.

Turning to `CC1(C)[C@H](c2ccc(S(N)(=O)=O)cc2)[C@H]1c1noc(-c2cccc(F)c2)n1` [Example L18], the EC50 was 100 to 500 nM under setting [1] and 220 nM under setting [2].

As for `CC1(C)[C@@H](c2ccc(S(N)(=O)=O)cc2)[C@@H]1c1nc(-c2ccccc2)no1` [Example C4], the EC50 is 100 to 500 nM under setting [1] and 370 nM under setting [2].

Regarding `Cc1noc([C@H]2[C@H](c3ccc(S(N)(=O)=O)cc3)C2(C)C)n1` [Example D13], the EC50 by setting is: under setting [1], 5000 to 50000 nM; under setting [2], 6000 nM.

Regarding `CC1(C)[C@@H](c2ccc(S(N)(=O)=O)cc2)[C@@H]1c1noc(C2(c3cc(F)ccc3F)CCC2)n1` [Example I4], the EC50 was 100 to 500 nM under setting [1] and 170 nM under setting [2].

Take `CC1(C)[C@H](c2ccc(S(N)(=O)=O)cc2)[C@H]1c1nc(C2CCC2)no1` [Example B3]: the EC50 by setting is: under setting [1], 5000 to 50000 nM; under setting [2], 8700 nM.

For the compound `Cc1cccc(F)c1-c1nc([C@H]2[C@H](c3ccc(S(N)(=O)=O)cc3)C2(C)C)no1` [Example H6], the EC50 under setting [1] is 100 to 500 nM.

Consider `CC1(C)[C@@H](c2ccc(S(N)(=O)=O)cc2)[C@@H]1c1noc(C2CCN(C3CC3)CC2)n1` [Example I9], for which the EC50 under setting [1] is 500 to 5000 nM and the EC50 under setting [2] stood at 1800 nM.

`CC1(C)[C@@H](c2ccc(S(N)(=O)=O)cc2)[C@@H]1c1nc(C2CC(F)(F)C2)no1` [Example D18]: the EC50 is, setting by setting: under setting [1], no more than 100 nM; under setting [2], 95 nM.

Regarding `CC(C)c1cnc([C@H]2[C@H](c3ccc(S(N)(=O)=O)cc3)C2(C)C)s1` [Example 21, 4-{(1S,3S)-2,2-Dimethyl-3-[5-(propan-2-yl)-1,3-thiazol-2-yl]cyclopropyl}benzenesulfonamide], the EC50 is 100 to 500 nM under setting [1] and 390 nM under setting [2].

As to `NS(=O)(=O)c1ccc(C2C(c3nc(C4CCCC4)no3)C2(Cl)Cl)cc1` (racemic) [Example M5], the EC50 under setting [1] fell in the range of 100 to 500 nM.

Turning to `NS(=O)(=O)c1ccc([C@H]2C[C@@H]2c2nc(C3CCCCC3)no2)cc1` [Example B4], under setting [1], the EC50 fell in the range of 500 to 5000 nM.

Regarding `NS(=O)(=O)c1ccc([C@@H]2[C@@H](c3nsc(-c4ccccc4)n3)C2(F)F)cc1` [Example L13], the EC50 runs as follows: under setting [1], 500 to 5000 nM; under setting [2], 740 nM.

Source of the values: patent US9840481B2, “Allosteric modulators of nicotinic acetylcholine receptors” (MERCK SHARP & DOHME CORP., priority 2016, dated 2017).
